Results reported in US20100248390A1, “COMPOSITIONS AND METHODS FOR IDENTIFYING LIGANDS OF ODORANT RECEPTORS” (DUKE UNIVERSITY, priority 2009, published 2010).

Tests used:
MOR2-1 = experiment: CRE-luciferase assay of odorant receptor activation, enantiomeric pairs; format: cell-based, mouse; conditions: CRE-luciferase in Hana3A cells; at some doses; compared with the other enantiomer; FIG. 6
Excerpt: OR open reading frames were amplified from genomic DNA using proofreading KOD DNA polymerase (Toyobo/Novagen) and subcloned into pCI expression vectors (Promega) containing the first 20 residues of human rhodopsin (Rho tag). The sequences of the cloned receptors were verified by sequencing (3100 Genetic Analyzer, ABI Biosystems). Immunocytochemistry and FACS analysis. […] For FACS analysis, phycoerythrin (PE)-conjugated anti-mouse IgG (Jackson Immunologicals) was used. In order to monitor the transfection efficiency, Green Fluorescent Protein (GFP) was co-transfected with the OR. The intensity of receptor cell surface expression was calculated as the ratio of PE and GFP expression. 7-aminoactinomycin D (Calbiochem) was added before flow cytometry to mark dead cells which were excluded from the analysis. The gate and mean of PE positive cells was normalized by GFP values. Luciferase assay. […] All luminescence values were divided by the Renilla Luciferase activity to control for transfection efficiency in a given well. […] Each comparison was performed in triplicate; statistical significance was assessed by t-test (uncorrected for multiple comparisons). […] For all remaining odorant pairs the Pearson correlation between EC50 vectors and the Euclidean distance between descriptor vectors was calculated. The Pearson correlation between these two sets of distances was then measured. […]

[1] = test system: mouse odorant receptors (ORs); experiment: CRE-luciferase assay of odorant receptor activation (Dual-Glo, Hana3A cells, RTP1S), dose-response EC50; format: cell-based; conditions: 0 = no response; for log EC50, MOR138-1: receptor MOR138-1; for log EC50, MOR139-1: receptor MOR139-1; for log EC50, MOR189-1: receptor MOR189-1; for log EC50, MOR272-1: receptor MOR272-1; for log EC50, MOR273-1: receptor MOR273-1
MOR271-1 = experiment: CRE-luciferase assay of odorant receptor activation, enantiomeric pairs; format: cell-based, mouse; conditions: CRE-luciferase in Hana3A cells; (+) versus (−) enantiomer; FIG. 6
Excerpt: (§1) Cloning mouse and human ORs. 219 mouse and 245 human odorant receptors were cloned with sequence information from The Olfactory Receptor Database (Healy et al., Chemical Senses 22, 321-6 (1997); herein incorporated by reference in its entirety). […] OR open reading frames were amplified from genomic DNA using proofreading KOD DNA polymerase (Toyobo/Novagen) and subcloned into pCI expression vectors (Promega) containing the first 20 residues of human rhodopsin (Rho tag). The sequences of the cloned receptors were verified by sequencing (3100 Genetic Analyzer, ABI Biosystems). Immunocytochemistry and FACS analysis. […] The intensity of receptor cell surface expression was calculated as the ratio of PE and GFP expression. […] Luminescence was measured using a Wallac Victor 1420 plate reader (Perkin-Elmer). All luminescence values were divided by the Renilla Luciferase activity to control for transfection efficiency in a given well. Normalized luciferase activity was calculated using the formula (LN−Lmin)/(Lmax−Lmin), where LN is the luminescence of firefly luciferase in response to the odorant, Lmin is the minimum luciferase value on a plate or set of plates, and Lmax is the maximum luciferase value on a plate or set of plates. The data was analyzed using Microsoft Excel and GraphPad Prism 4. […]

MOR107-1 = experiment: as above; format: cell-based, mouse; conditions: CRE-luciferase in Hana3A cells; (+) versus (−) enantiomer; FIG. 6
Excerpt: as §1

[2] = biological target: T1, human odorant receptors (ORs) (Homo sapiens, UniProt Q8NHC4); experiment: CRE-luciferase assay of odorant receptor activation (Dual-Glo, Hana3A cells, RTP1S), dose-response EC50; format: cell-based; conditions: receptor OR10J5; read-out: log EC50 of odorant at OR10J5 (0 = no response) (converted)
T1 construct: OR open reading frames were amplified from genomic DNA; expressed in transfected cells; host or cells: Hana3A cells, co-transfected with RTP1S, CRE-luciferase and pRL-SV40
T1 sequence (Q8NHC4 1-309): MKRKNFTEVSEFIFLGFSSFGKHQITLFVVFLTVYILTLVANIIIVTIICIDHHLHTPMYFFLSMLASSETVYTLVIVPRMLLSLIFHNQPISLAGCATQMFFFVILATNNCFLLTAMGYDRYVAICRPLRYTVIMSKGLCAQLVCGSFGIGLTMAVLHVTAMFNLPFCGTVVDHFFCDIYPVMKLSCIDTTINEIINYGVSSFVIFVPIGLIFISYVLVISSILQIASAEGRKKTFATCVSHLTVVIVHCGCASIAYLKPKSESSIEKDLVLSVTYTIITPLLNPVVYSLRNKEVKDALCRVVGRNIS
In short: (§2)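 Hana3A cells were co-transfected with Rho-tagged OR, RTP1S, CRE-luciferase and pRL-SV40, then exposed to odorant in CD293 medium for 4 hrs at 37° C. Firefly luminescence was divided by Renilla and normalized as (LN−Lmin)/(Lmax−Lmin) per plate set. Each dose was tested at least three times, and EC50 came from sigmoidal fits.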

[3] = biological target: T2, mouse odorant receptors (ORs) (Mus musculus, UniProt P23275); experiment: as above; format: cell-based; conditions: receptor MOR256-17; read-out: log EC50 of odorant at MOR256-17 (0 = no response) (converted)
T2 construct: OR open reading frames were amplified from genomic DNA; expressed in transfected cells; host or cells: Hana3A cells, co-transfected with RTP1S, CRE-luciferase and pRL-SV40
T2 sequence (P23275 1-312): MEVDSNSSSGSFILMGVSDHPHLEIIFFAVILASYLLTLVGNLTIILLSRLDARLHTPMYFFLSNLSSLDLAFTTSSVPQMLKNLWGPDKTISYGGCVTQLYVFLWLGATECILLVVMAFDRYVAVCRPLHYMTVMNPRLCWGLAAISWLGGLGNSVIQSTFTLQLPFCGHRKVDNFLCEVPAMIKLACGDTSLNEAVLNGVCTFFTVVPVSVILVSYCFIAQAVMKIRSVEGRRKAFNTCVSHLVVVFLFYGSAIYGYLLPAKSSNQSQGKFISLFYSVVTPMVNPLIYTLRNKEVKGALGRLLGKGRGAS

[4] = biological target: T3, human odorant receptors (ORs) (Homo sapiens, UniProt Q9H255); experiment: as above; format: cell-based; conditions: receptor OR51E2; read-out: log EC50 of odorant at OR51E2 (0 = no response) (converted)
T3 construct: OR open reading frames were amplified from genomic DNA; expressed in transfected cells; host or cells: Hana3A cells, co-transfected with RTP1S, CRE-luciferase and pRL-SV40
T3 sequence (Q9H255 1-320): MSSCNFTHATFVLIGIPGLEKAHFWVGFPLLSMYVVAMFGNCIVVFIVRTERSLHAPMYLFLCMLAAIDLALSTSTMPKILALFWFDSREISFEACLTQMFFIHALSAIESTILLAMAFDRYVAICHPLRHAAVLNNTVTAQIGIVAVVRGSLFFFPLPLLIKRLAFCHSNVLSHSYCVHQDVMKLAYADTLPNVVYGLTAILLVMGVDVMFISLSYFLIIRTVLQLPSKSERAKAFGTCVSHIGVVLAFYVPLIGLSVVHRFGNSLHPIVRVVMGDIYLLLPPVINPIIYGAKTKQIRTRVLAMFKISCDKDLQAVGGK
In short: as §2

Row | SMILES | log EC50, MOR138-1 [1] | log EC50, MOR139-1 [1] | log EC50, MOR189-1 [1] | log EC50, MOR272-1 [1] | log EC50, MOR273-1 [1] | other results
1 | CCC(C(=O)O)c1ccccc1 (single isomer, unassigned; (+)) [(+) enantiomer of 2-phenylbutyric acid, (+)-2-Phenylbutyric acid] | – | – | – | – | – | response of MOR2-1 (MOR2-1): responded more strongly; log EC50, MOR2-1 ([1]; receptor MOR2-1): −3.499
2 | CC1(C)C(=O)[C@@]2(C)CCC1C2 (single isomer, unassigned; (+)) [(+) enantiomer of fenchone, (+)-Fenchone] | −4.626 | −3.773 | −4.423 | −4.35 | −4.073 | activation of MOR271-1 (MOR271-1): only activated by the (+) enantiomer; log EC50, MOR271-1 ([1]; receptor MOR271-1): −4.859
3 | CC1(C)C(=O)[C@]2(C)CCC1C2 (single isomer, unassigned; (-)) [(−) enantiomer of fenchone, (−)-Fenchone] | −4.481 | −3.879 | −4.239 | −3.558 | −5.231 | activation of MOR107-1 (MOR107-1): activated only by the (−) enantiomer; log EC50, MOR107-1 ([1]; receptor MOR107-1): −4.302
4 | CC(C)(O)CCCC1=CCC(C=O)CC1 (stereo not shown) [Lyral] | – | – | – | – | – | EC50 [2]: 324 µM; EC50 [3]: 55.6 µM
5 | CCC(=O)O [Propionic acid] | – | – | – | – | – | EC50 [4]: 109 µM
